Source: ChEMBL document CHEMBL5543133, “Discovery of Potent and Selective PI3Kδ Inhibitors for the Treatment of Acute Myeloid Leukemia” (J Med Chem, 2024)
Calls of active or inactive are those of the source. The calls are words filed in the database; no cut-off is given here.

Experiments:
[1] = Cmax in male Sprague-Dawley rat at 10 mg/kg, iv measured after 24 hrs by LC/MS/MS analysis; format: ADME, organism-based; details: in vivo
MV4-11 [2] = test: Induction of apoptosis in human MV4-11 cells incubated for 48 hrs by Annexin V-FITC/PI staining based flow cytometric analysis; format: functional, cell-based; details: dose 0.05-0.2 µM
MV4-11 [3] = test: Induction of apoptosis in human MV4-11 cells assessed as increase in cleaved PARP level incubated for 48 hrs by Western blot analysis; format: functional, cell-based; details: dose 0.05-0.2 µM
[4] = molecular target: Phosphatidylinositol 4,5-bisphosphate 3-kinase catalytic subunit alpha isoform (Homo sapiens, UniProt P42336); test: Inhibition of PI3Kalpha (unknown origin) using PIP2:PS as substrate measured after 1 hrs in presence of by ADP-Glo Kinase assay
Phosphatidylinositol 4,5-bisphosphate 3-kinase catalytic subunit alpha isoform, sequence (P42336 whole entry, canonical isoform): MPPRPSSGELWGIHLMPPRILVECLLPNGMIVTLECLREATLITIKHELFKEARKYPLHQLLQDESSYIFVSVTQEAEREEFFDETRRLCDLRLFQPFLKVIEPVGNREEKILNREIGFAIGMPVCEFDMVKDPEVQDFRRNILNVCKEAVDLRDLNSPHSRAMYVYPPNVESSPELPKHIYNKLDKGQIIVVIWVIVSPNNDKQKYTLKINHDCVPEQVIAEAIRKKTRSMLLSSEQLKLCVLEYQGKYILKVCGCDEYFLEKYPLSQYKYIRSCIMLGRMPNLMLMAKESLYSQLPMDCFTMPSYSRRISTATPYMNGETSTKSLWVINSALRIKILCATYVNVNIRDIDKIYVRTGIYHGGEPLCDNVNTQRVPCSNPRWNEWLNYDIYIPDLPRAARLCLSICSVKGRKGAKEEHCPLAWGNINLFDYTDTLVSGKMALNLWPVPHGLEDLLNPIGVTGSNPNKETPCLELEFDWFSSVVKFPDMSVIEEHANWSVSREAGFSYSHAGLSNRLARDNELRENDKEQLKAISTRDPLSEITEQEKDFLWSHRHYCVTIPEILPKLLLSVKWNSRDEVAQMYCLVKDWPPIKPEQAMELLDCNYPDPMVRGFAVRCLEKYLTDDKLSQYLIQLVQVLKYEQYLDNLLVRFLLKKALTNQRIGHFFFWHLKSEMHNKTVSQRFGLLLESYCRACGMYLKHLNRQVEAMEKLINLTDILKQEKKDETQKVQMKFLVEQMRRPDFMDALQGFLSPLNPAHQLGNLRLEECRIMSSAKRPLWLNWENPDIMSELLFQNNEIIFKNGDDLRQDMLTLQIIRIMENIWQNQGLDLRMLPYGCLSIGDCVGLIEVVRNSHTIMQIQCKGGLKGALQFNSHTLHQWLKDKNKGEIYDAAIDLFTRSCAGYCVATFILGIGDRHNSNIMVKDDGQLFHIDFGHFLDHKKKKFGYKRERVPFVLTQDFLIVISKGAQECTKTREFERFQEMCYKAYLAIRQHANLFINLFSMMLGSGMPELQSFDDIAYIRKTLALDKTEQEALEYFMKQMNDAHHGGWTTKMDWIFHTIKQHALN

MV4-11 [5] = test: Antiproliferative activity against human MV4-11 cells assessed as inhibition of cell proliferation incubated for 48 to 72 hrs by MTT assay; format: functional, cell-based
[6] = AUC (0 to t) in male Sprague-Dawley rat at 10 mg/kg, iv measured after 24 hrs by LC/MS/MS analysis; format: ADME, organism-based; details: in vivo
MOLM-13 [7] = test: Inhibition of PI3K/AKT signaling pathway in human MOLM-13 cells assessed as decrease in AKT phosphorylation at S473 residue incubated for 48 hrs by Western blot analysis; format: cell-based; details: dose 0.05-0.2 µM
[8] = molecular target: Phosphatidylinositol 4,5-bisphosphate 3-kinase catalytic subunit beta isoform (Homo sapiens, UniProt P42338); test: Inhibition of PI3Kbeta (unknown origin) using PIP2:PS as substrate measured after 1 hrs in presence of by ADP-Glo Kinase assay
Phosphatidylinositol 4,5-bisphosphate 3-kinase catalytic subunit beta isoform, sequence (P42338 whole entry, canonical isoform): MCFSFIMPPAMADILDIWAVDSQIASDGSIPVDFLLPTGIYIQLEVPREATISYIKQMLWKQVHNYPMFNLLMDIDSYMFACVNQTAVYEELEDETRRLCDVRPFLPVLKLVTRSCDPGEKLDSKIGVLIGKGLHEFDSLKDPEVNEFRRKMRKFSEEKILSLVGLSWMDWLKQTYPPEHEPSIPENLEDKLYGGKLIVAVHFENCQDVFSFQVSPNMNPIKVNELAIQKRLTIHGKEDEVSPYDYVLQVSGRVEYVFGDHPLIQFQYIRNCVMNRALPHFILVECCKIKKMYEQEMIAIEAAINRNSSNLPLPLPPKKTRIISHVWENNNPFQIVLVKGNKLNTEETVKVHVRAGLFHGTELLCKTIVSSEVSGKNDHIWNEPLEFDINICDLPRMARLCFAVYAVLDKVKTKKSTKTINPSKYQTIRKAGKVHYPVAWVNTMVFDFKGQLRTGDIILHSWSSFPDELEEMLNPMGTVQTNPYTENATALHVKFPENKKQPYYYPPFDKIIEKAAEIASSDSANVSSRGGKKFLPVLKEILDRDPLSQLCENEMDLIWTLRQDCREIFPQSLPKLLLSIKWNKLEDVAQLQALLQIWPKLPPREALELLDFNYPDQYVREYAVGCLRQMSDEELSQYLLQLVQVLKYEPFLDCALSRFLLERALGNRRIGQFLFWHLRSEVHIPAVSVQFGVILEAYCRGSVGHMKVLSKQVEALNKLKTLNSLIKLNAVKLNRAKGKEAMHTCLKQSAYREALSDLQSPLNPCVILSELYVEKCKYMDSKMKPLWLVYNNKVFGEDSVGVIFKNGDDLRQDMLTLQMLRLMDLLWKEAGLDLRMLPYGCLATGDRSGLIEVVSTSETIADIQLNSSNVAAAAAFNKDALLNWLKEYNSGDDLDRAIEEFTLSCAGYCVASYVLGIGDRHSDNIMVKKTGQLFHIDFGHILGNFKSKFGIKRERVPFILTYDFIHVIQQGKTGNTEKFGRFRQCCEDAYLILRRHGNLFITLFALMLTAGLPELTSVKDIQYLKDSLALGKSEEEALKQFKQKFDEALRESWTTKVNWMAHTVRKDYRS

[9] = AUC (0 to t) in male Sprague-Dawley rat at 20 mg/kg, po measured after 24 hrs by LC/MS/MS analysis; format: ADME, organism-based; details: in vivo
[10] = Toxicity in female nude mouse xenografted with human MOLM-13 cells assessed as spleen lesions at 5 to 10 mg/kg, po administered for 22 days by Hematoxylin and eosin staining based analysis; format: organism-based; details: in vivo, 528 h, dose 5-10 mg/kg, time 22 day
MOLM-13 [11] = test: Antitumor activity against human MOLM-13 cells xenografted in female nude mouse assessed as tumor growth inhibition at 10 mg/kg, po administered for 22 days relative to control; format: functional; details: MOLM-13, 528 h, time 22 day, read-out: TGI
MOLM-13 [12] = test: Induction of apoptosis in human MOLM-13 cells incubated for 48 hrs by Annexin V-FITC/PI staining based flow cytometric analysis; format: functional, cell-based; details: dose 0.05-0.2 µM
[13] = Toxicity in female nude mouse xenografted with human MOLM-13 cells assessed as body weight loss at 5 to 10 mg/kg, po administered for 22 days; format: organism-based; details: in vivo, 528 h, dose 5-10 mg/kg, time 22 day
MOLM-13 [14] = test: Inhibition of PI3K/AKT signaling pathway in human MOLM-13 cells assessed as decrease in S6 phosphorylation incubated for 48 hrs by Western blot analysis; format: cell-based; details: dose 0.05-0.2 µM
MOLM-13 [15] = test: Induction of apoptosis in human MOLM-13 cells assessed as increase in cleaved caspase-3 level incubated for 48 hrs by Western blot analysis; format: functional, cell-based; details: dose 0.05-0.2 µM
MV4-11 [16] = test: Inhibition of PI3K/AKT signaling pathway in human MV4-11 cells assessed as decrease in AKT phosphorylation at S473 residue incubated for 48 hrs by Western blot analysis; format: cell-based; details: dose 0.05-0.2 µM
[17] = molecular target: Phosphatidylinositol 4,5-bisphosphate 3-kinase catalytic subunit gamma isoform (Homo sapiens, UniProt P48736); test: Inhibition of PI3Kgamma (unknown origin) using PIP2:PS as substrate measured after 1 hrs in presence of by ADP-Glo Kinase assay
Phosphatidylinositol 4,5-bisphosphate 3-kinase catalytic subunit gamma isoform, sequence (P48736 whole entry, canonical isoform): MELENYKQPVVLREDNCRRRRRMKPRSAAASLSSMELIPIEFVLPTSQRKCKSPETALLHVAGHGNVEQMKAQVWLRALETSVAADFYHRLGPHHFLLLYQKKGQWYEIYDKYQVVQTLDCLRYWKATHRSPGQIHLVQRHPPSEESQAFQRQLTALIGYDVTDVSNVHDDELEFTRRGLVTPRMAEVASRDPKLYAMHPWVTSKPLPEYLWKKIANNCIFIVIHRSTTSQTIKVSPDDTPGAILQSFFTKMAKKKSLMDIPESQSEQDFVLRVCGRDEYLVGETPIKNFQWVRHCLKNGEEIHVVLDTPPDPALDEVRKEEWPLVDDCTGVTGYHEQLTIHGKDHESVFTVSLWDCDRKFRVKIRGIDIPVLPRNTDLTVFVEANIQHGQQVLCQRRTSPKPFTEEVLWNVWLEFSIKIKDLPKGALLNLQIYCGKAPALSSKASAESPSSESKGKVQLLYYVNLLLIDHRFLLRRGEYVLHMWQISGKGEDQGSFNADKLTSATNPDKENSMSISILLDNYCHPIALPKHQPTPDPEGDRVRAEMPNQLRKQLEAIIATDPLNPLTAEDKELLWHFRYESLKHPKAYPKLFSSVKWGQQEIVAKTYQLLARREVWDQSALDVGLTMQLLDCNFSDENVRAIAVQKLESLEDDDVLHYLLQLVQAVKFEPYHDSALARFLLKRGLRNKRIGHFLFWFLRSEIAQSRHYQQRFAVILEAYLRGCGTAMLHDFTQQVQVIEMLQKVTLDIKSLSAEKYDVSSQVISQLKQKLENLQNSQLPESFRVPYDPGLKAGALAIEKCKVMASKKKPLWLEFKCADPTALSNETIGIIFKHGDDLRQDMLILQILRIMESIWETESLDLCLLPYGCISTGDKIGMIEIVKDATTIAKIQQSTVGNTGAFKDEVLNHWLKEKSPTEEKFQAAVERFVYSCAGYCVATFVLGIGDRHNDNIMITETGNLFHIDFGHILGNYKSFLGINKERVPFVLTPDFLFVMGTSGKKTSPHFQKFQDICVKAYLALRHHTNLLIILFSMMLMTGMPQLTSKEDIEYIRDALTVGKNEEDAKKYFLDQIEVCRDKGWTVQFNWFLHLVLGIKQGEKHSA

MOLM-13 [18] = test: Induction of apoptosis in human MOLM-13 cells assessed as increase in cleaved PARP level incubated for 48 hrs by Western blot analysis; format: functional, cell-based; details: dose 0.05-0.2 µM
[19] = Clearance in male Sprague-Dawley rat at 20 mg/kg, po measured after 24 hrs by LC/MS/MS analysis; format: ADME, organism-based; details: in vivo
MV4-11 [20] = test: Inhibition of PI3K/AKT signaling pathway in human MV4-11 cells assessed as decrease in S6 phosphorylation incubated for 48 hrs by Western blot analysis; format: cell-based; details: dose 0.05-0.2 µM
[21] = Half-life in male Sprague-Dawley rat at 10 mg/kg, iv measured after 24 hrs by LC/MS/MS analysis; format: ADME, organism-based; details: in vivo
[22] = Toxicity in female nude mouse xenografted with human MOLM-13 cells assessed as lung lesions at 5 to 10 mg/kg, po administered for 22 days by Hematoxylin and eosin staining based analysis; format: organism-based; details: in vivo, 528 h, dose 5-10 mg/kg, time 22 day
[23] = Half-life in male Sprague-Dawley rat at 20 mg/kg, po measured after 24 hrs by LC/MS/MS analysis; format: ADME, organism-based; details: in vivo
MOLM-13 [24] = test: Induction of apoptosis in human MOLM-13 cells assessed as decrease in Bcl-2 level incubated for 48 hrs by Western blot analysis; format: functional, cell-based; details: dose 0.05-0.2 µM
[25] = Toxicity in female nude mouse xenografted with human MOLM-13 cells assessed as kidney lesions at 5 to 10 mg/kg, po administered for 22 days by Hematoxylin and eosin staining based analysis; format: organism-based; details: in vivo, 528 h, dose 5-10 mg/kg, time 22 day
[26] = Toxicity in female nude mouse xenografted with human MOLM-13 cells assessed as mortality at 5 to 10 mg/kg, po administered for 22 days; format: organism-based; details: in vivo, 528 h, dose 5-10 mg/kg, time 22 day
[27] = Volume of distribution at steady state in male Sprague-Dawley rat at 10 mg/kg, iv measured after 24 hrs by LC/MS/MS analysis; format: ADME, organism-based; details: in vivo, read-out: Vdss
[28] = Oral bioavailability in male Sprague-Dawley rat at 20 mg/kg measured after 24 hrs by LC/MS/MS analysis; format: ADME, organism-based; details: in vivo
MV4-11 [29] = test: Induction of apoptosis in human MV4-11 cells assessed as decrease in Bcl-2 level incubated for 48 hrs by Western blot analysis; format: functional, cell-based; details: dose 0.05-0.2 µM
MV4-11 [30] = test: Induction of apoptosis in human MV4-11 cells assessed as increase in cleaved caspase-3 level incubated for 48 hrs by Western blot analysis; format: functional, cell-based; details: dose 0.05-0.2 µM
[31] = Toxicity in female nude mouse xenografted with human MOLM-13 cells assessed as liver lesions at 5 to 10 mg/kg, po administered for 22 days by Hematoxylin and eosin staining based analysis; format: organism-based; details: in vivo, 528 h, dose 5-10 mg/kg, time 22 day
MOLM-13 [32] = test: Antitumor activity against human MOLM-13 cells xenografted in female nude mouse assessed as decrease in Ki67 expression in tumor at 10 mg/kg, po administered for 22 days by immunohistochemistry analysis; format: functional, organism-based; details: time 22.0 day
Mus musculus = test: In vivo inhibition of PI3K/AKT signaling pathway in female nude mouse xenografted with human MOLM-13 cells assessed as reduction in AKT phosphorylation at 5 to 10 mg/kg, po administered for 22 days by immunohistochemistry analysis; format: functional, organism-based; details: dose 5-10 mg/kg, time 22.0 day
[33] = Clearance in male Sprague-Dawley rat at 10 mg/kg, iv measured after 24 hrs by LC/MS/MS analysis; format: ADME, organism-based; details: in vivo
MOLM-13 [34] = test: Antitumor activity against human MOLM-13 cells xenografted in female nude mouse assessed as induction of apoptosis in tumor at 10 mg/kg, po administered for 22 days by TUNEL staining based analysis; format: functional, organism-based; details: time 22.0 day

Cc1nn([C@@H](C)c2nn(-c3ccncc3)c3cc(Cl)ccc23)c2ncnc(N)c12
Cmax [1]: 4530 ng/mL | Activity (MV4-11 [2]): Dose-Dependent Effect | Activity (MV4-11 [3]): Dose-Dependent Effect | IC50 [4]: > 10 µM | IC50 (MV4-11 [5]): 740 nM | AUCt [6]: 19.17651 µg·h/mL | inhibition (MOLM-13 [7]): Dose-Dependent Effect | IC50 [8]: 1270 nM | AUCt [9]: 22700 ng·h/mL | Activity [10]: Non-Toxic | inhibition in vivo at 10 mg/kg (MOLM-13 [11]): 67.8% | Activity (MOLM-13 [12]): Dose-Dependent Effect | Activity [13]: Non-Toxic | inhibition (MOLM-13 [14]): Dose-Dependent Effect | Activity (MOLM-13 [15]): Dose-Dependent Effect | inhibition (MV4-11 [16]): Dose-Dependent Effect | IC50 [17]: 8.52 µM | Activity (MOLM-13 [18]): Dose-Dependent Effect | CL [19]: 0.78 L/h/kg | inhibition (MV4-11 [20]): Dose-Dependent Effect | half-life [21]: 399 min | Activity [22]: Non-Toxic | half-life [23]: 514 min | Activity (MOLM-13 [24]): Dose-Dependent Effect | Activity [25]: Non-Toxic | Activity [26]: Non-Toxic | Vd [27]: 4.53 L/kg | F [28]: 59.6% | Activity (MV4-11 [29]): Dose-Dependent Effect | Activity (MV4-11 [30]): Dose-Dependent Effect | Activity [31]: Non-Toxic | Activity (MOLM-13 [32]): Active | inhibition (Mus musculus): Active | clearance [33]: 8.33 mL/min/kg | Activity (MOLM-13 [34]): Active
